Measured values reported in patent US6872850B2, “Small molecule inhibitors of secretion of proteins encoded by ARE-mRNAs” (Message Pharmaceuticals, priority 2001, dated 2005).

Experiments:
[1] = tested on: TNFα; assay: ELISA of TNFα secreted into the media after LPS; format: cell-based; conditions: 10 μM compound, 1 h, then LPS
Protocol: The ability of candidate compounds to reduce the amount of secreted TNFα was also directly tested using an ELISA assay. […] A standard ELISA analysis was used to measure the amount of TNFα secreted into the media (see, for example, Ausubel et al., supra). The effect of a candidate compound on TNFα secretion in this assay is reported in the following tables as a percentage of the amount of TNFα secreted by a control cell that was administered a DMSO vehicle control only.

[2] = tested on: 3′ UTR of the TNFα gene; assay: cell-based luciferase reporter assay, 5B cell line (luciferase gene with entire 3′ UTR of the TNFα gene); design: species or system mouse; conditions: 10 μM compound; for Luciferase 5B (% of DMSO control): 1 h, then LPS, 5B cell line; for Luciferase 5B/3B (% of DMSO control 5B)/(% of DMSO control 3B): ratio of 5B to control 3B cell line
Protocol: The candidate compounds were tested in a high-throughput, cell-based luciferase reporter assay. For this assay, a commercially available mouse macrophage Raw 264.7 cell line was stably transfected with a construct containing the CMV promoter operably linked to the luciferase gene which was modified using standard molecular biology techniques to contain the entire 3′ UTR of the TNFα gene. This 3′ UTR is important for the stability and translation of TNFα in cells. To control for effects of candidate compounds that are not specific for TNFα, a control cell line, called “3B,” was generated by stably transfecting the 264.7 cell line with a commercially available construct containing the luciferase gene (without the addition of the heterologous 3′ UTR of the TNFα gene) under the regulation of the CMV promoter.
[…] Then, lipopolysaccharide (LPS) was added to stimulate TNFα secretion. Luciferase activity was measured by determining the luminescence intensity due to the reaction of lucifern, ATP, Mg^2+, and molecular O2 (see, for example, Ausubel et al., supra). The luciferase activity in a cell incubated with a candidate compound was reported as a percentage of the luciferase activity for the corresponding cell incubated with DMSO vehicle only.
After correction for any effect caused by the administration of the DMSO only vehicle control, the effect of a candidate compound on luciferase activity in the 3B control cell line represents the global effect of the compound on any step required for expression or activity of luciferase protein, such as luciferase gene transcription, mRNA processing, mRNA stability, translation, protein stability, or enzymatic activity. […] In this case, the luciferase activity in the 5B cell line treated with the DMSO vehicle control is similar to the luciferase activity in the control 3B cell line treated with the candidate compound. Thus, the response of the 5B cell line (as a percent of the DMSO control) and the ratio of the luciferase activity in the 5B cell line (as a percent of the DMSO control) to the luciferase activity in the control 3B cell line (as a percent of the DMSO control) are similar. In desirable embodiments, the response of the 5B cell line and the 5B/3B ratio differ by less than 50, 40, 30, 20, 10, or 5%.

Row | Compound | TNFα Secretion (% of DMSO control) [1] | Luciferase 5B (% of DMSO control) [2] | Luciferase 5B/3B (% of DMSO control 5B)/(% of DMSO control 3B) [2]
1 | CC(C)CC(NC(=O)c1ccc(C(=NNC(=N)N)c2ccccc2)cc1)C(=O)N1CCN(C(=O)C(Cc2ccc(Cl)cc2)NC(=O)c2ccc(C(=NNC(=N)N)c3ccccc3)cc2)CC1 (mixture of isomers) [MES 10192] | 17 % of DMSO control | 37 % of DMSO control | 47 (% of DMSO control 5B)/(% of DMSO control 3B)
2 | CC(C)CC(NC(=O)c1ccc(C(=NNC(=N)N)c2ccccc2)cc1)C(=O)N1CCN(C(=O)C(Cc2ccc(-c3ccccc3)cc2)NC(=O)c2ccc(C(=NNC(=N)N)c3ccccc3)cc2)CC1 (mixture of isomers) [MES 10193] | 20 % of DMSO control | 23 % of DMSO control | 38 (% of DMSO control 5B)/(% of DMSO control 3B)
3 | CC(C)CC(NC(=O)c1ccc(C(=NNC(=N)N)c2ccccc2)cc1)C(=O)N1CCN(C(=O)C(CCc2ccccc2)NC(=O)c2ccc(C(=NNC(=N)N)c3ccccc3)cc2)CC1 (mixture of isomers) [MES 10194] | 22 % of DMSO control | 34 % of DMSO control | 49 (% of DMSO control 5B)/(% of DMSO control 3B)
4 | CC(C)CC(NC(=O)c1ccc(C(=NNC(=N)N)c2ccccc2)cc1)C(=O)N1CCN(C(=O)C(Cc2ccc3ccccc3c2)NC(=O)c2ccc(C(=NNC(=N)N)c3ccccc3)cc2)CC1 (mixture of isomers) [MES 10195] | 33 % of DMSO control | 36 % of DMSO control | 82 (% of DMSO control 5B)/(% of DMSO control 3B)
5 | CC(C)CC(NC(=O)c1ccccc1)C(=O)N1CCN(C(=O)C(Cc2ccccc2)NC(=O)c2ccc(C(=NNC(=N)N)c3ccccc3)cc2)CC1 (mixture of isomers) [MES 10222] | 49 % of DMSO control | 36 % of DMSO control | 49 (% of DMSO control 5B)/(% of D
6 | CC(C)CC(NC(=O)c1ccc(C(=NNC(=N)N)c2ccccc2)cc1)C(=O)N1CCN(C(=O)C(Cc2ccccc2)NC(=O)c2ccccc2)CC1 (mixture of isomers) [MES 10231] | 49 % of DMSO control | 34 % of DMSO control | 33 (% of DMSO control 5B)/(% of D
7 | CC(C)CC(NC(=O)c1ccc(C(=NNC(=N)N)c2ccccc2)cc1)C(=O)N1CCN(C(=O)C(Cc2ccccc2)NC(=O)c2ccc([N+](=O)[O-])cc2)CC1 (mixture of isomers) [MES 10233] | 42 % of DMSO control | 36 % of DMSO control | 40 (% of DMSO control 5B)/(% of D
8 | CC(C)CC(NC(=O)c1ccc(C(=NNC(=N)N)c2ccccc2)cc1)C(=O)N1CCN(C(=O)C(Cc2ccc(F)cc2)NC(=O)c2ccc(C(=NNC(=N)N)c3ccccc3)cc2)CC1 (mixture of isomers) [MES 10236] | 34 % of DMSO control | 18 % of DMSO control | 25 (% of DMSO control 5B)/(% of DMSO control 3B)
9 | COc1ccc(CC(NC(=O)c2ccc(C(=NNC(=N)N)c3ccccc3)cc2)C(=O)N2CCN(C(=O)C(CC(C)C)NC(=O)c3ccc(C(=NNC(=N)N)c4ccccc4)cc3)CC2)cc1 (mixture of isomers) [MES 10237] | 39 % of DMSO control | 20 % of DMSO control | 27 (% of DMSO control 5B)/(% of DMSO control 3B)
